Results on 34 molecules are retold here after ChEMBL document CHEMBL1201862, “PubChem BioAssay data set” (2004).

One may read the GI50 as the concentration that inhibits growth by half.

SMILES strings stand for the structures.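 In this assay, cells in 96-well plates receive the compound at five concentrations for 48 hours. Endpoints are linearly interpolated between the surrounding concentrations. The concentration for 50% growth inhibition is given as GI50.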 The source made the active and inactive calls. No stated cut-off is given here; in the data, active = GI50 up to about 1.1 µM and inactive = higher.

Common to all, as to assay: DTP human tumour cell line panel, 48 h
In test [1] the test system is MDA-MB-435.
Test [2] deals with DU-145.
Test [3] concerns T47D.

Turning to `NS(=O)(=O)c1ccc(NNc2c3ccccc3nc3c(C(=O)Nc4ccc(S(=O)(=O)Nc5ncccn5)cc4)cccc23)cc1`, the GI50 in test [1], in test [2] and in test [3] was > 25 µM (inactive) each time.

Turning to `Cn1c2c3ccc(Cl)cc3nc-2c(Cl)c2ccccc21`, the GI50 in test [1] was 18.1 µM (inactive); in test [2], 15.1 µM (inactive); in test [3], 11.9 µM (inactive).

As for `[N-]=[N+]=NC[C@H]1OCO[C@H](CN=[N+]=[N-])[C@H]2OCCOCCOc3ccccc3OCCOCCO[C@@H]21`, the GI50 in test [1], in test [2] and in test [3] was > 100 µM (inactive) in each case.

For `Cn1c(SCc2c[nH]c3ccccc23)nnc1-c1ccc(Cl)cc1Cl`, the GI50 in test [1] is 3 µM (inactive); in test [2], 17.6 µM (inactive); in test [3] it was 12.7 µM (inactive).

Consider `Cc1nc2nnc(CCCCCCCCc3nnc4nc(C)[nH]n34)n2[nH]1`, for which the GI50 in test [1] and in test [2] was > 100 µM (inactive) each time.

In the case of `CCOC(=O)O/C(=C\c1ccc(OC)cc1)c1c(OC(=O)OCC)n(C(=O)OCC)c2ccccc12`, the results for the GI50 in test [1], in test [2] and in test [3] were 24.9 µM (inactive), 42.2 µM (inactive) and 57.7 µM (inactive), respectively.

With `CN(CCCCCl)P(=O)(OCc1ccc([N+](=O)[O-])o1)OC[C@H]1O[C@@H](n2cc(F)c(=O)[nH]c2=O)C[C@@H]1O` (some centres undefined), the figures for the GI50 in test [1] and in test [2] were 5.85 µM (inactive) and 0.569 µM (active), respectively.

As for `Cc1cccc(-c2cc(=S)c3cc(N4CCCC4)ccc3[nH]2)c1`, the GI50 in test [1], in test [2] and in test [3] was > 100 µM (inactive) each time.

Take `c1csc(-c2ccsc2-c2ccsc2)c1`: the figures for the GI50 in test [1], in test [2] and in test [3] were 39.3 µM (inactive), > 100 µM (inactive) and > 100 µM (inactive), respectively.

For `C[O+]=C1C=CC(=C2SC(c3ccccc3)(c3ccccc3)c3ccccc32)C=C1.[O-][Cl+3]([O-])([O-])[O-]`, the GI50 in test [1] was 18.6 µM (inactive); in test [2], 26.2 µM (inactive); in test [3], 20.8 µM (inactive).

In the case of `Cc1ccc(S(=O)(=O)N(CCN)c2cc3c4c(c2)Oc2cccc5c2C4c2c(cccc2O3)O5)cc1`, in test [1], the GI50 was 20.7 µM (inactive).

Take `Cc1cc(O)cc(O)c1/N=N/c1ccc([N+](=O)[O-])cc1`: the GI50 is 13.8 µM (inactive) in test [1], 22.9 µM (inactive) in test [2] and 9.14 µM (inactive) in test [3].

In the case of `CCCC1CCC(=C2C(=O)CCC2=O)O1` (centres undefined), the GI50 in test [1], in test [2] and in test [3] was > 100 µM (inactive) in each case.

As to `Cc1ccc(S(=O)(=O)NC(C(=O)O)C(C)C)cc1` (centres undefined), the GI50 in test [1], in test [2] and in test [3] was > 100 µM (inactive) throughout.

With `CC1CCCCNC1=S` (centres undefined), the GI50 in test [1], in test [2] and in test [3] was > 10 µM (inactive) each time.

`CCC1CN(C(=O)c2ccccc2)C(Cc2c[nH]c3ccccc23)C(=O)C1CC(=O)OC` (centres undefined): the GI50 in test [1], in test [2] and in test [3] was > 100 µM (inactive) each time.

On to `COc1ccc2c(c1)C(=O)CC1c3cnccc3C(=O)N21` (centres undefined), for which the GI50 in test [1] is > 31.6 µM (inactive); in test [2], > 100 µM (inactive); in test [3] it was > 100 µM (inactive).

On to `CN(CCNC(=O)c1c[nH]c2c1Cc1ccccc1-2)CCNC(=O)c1c[nH]c2c1Cc1ccccc1-2`, for which the GI50 in test [1] was 17.1 µM (inactive); in test [2] it was 60.1 µM (inactive).

For the molecule `COC(OC)(c1ccccc1)C(Br)Br`, the GI50 in test [1] was 20.2 µM (inactive); in test [2], > 100 µM (inactive); in test [3], 39.7 µM (inactive).

As to `Cn1c2ccccc2n2c(=O)c(-c3ccc(O)cc3)nnc12`, the GI50 in test [1], in test [2] and in test [3] was > 100 µM (inactive) throughout.

Take `CCC(C)[C@@H](NC1=C(Cl)C(=O)c2c(O)ccc(O)c2C1=O)C(=O)OC` (some centres undefined): the GI50 is 3.55 µM (inactive) in test [1], 5.19 µM (inactive) in test [2] and > 10 µM (inactive) in test [3].

For the molecule `Cc1cc(N(CCC#N)CCC#N)ccc1/C=C1\SC(=S)NC1=O`, the results for the GI50 in test [1], in test [2] and in test [3] were 82.2 µM (inactive), > 100 µM (inactive) and 66.7 µM (inactive), respectively.

Consider `C1CN(c2nc3c(nnc4nc(N5CCOCC5)sc43)s2)CCO1`, for which the figures for the GI50 in test [1], in test [2] and in test [3] were > 100 µM (inactive), > 100 µM (inactive) and 23.7 µM (inactive), respectively.

Turning to `C=C1CC2CCCC12C=O` (centres undefined), the GI50 in test [1], in test [2] and in test [3] was > 10 µM (inactive) in each case.

Take `O=C1/C(=C/c2cccc([N+](=O)[O-])c2)N=C(c2ccccc2)N1c1nc2ccc(Sc3ccccc3)cc2[nH]1`: the GI50 is 13.3 µM (inactive) in test [1] and 47.2 µM (inactive) in test [3].

Consider `COc1ccc(OC)c(C2CCc3nc4nc(N)nc(N)c4cc3C2)c1` (centres undefined), for which the GI50 in test [1] is 2.04 µM (inactive); in test [2], 5.66 µM (inactive); in test [3], 1.94 µM (inactive).

`CCOCC(=O)N[C@H]1CCc2cc(OC(=O)COCC)c(OC)c(OC)c2-c2ccc(SC)c(=O)cc21`: the figures for the GI50 in test [1], in test [2] and in test [3] were 0.00195 µM (active), 0.0222 µM (active) and > 10 µM (inactive), respectively.

In the case of `CO[C@@H]1C[C@H]2[C@@H]3CC[C@H]([C@H](C)CO)[C@@]3(C)CC[C@@H]2[C@@]2(C)CC[C@H]3C[C@]312`, the GI50 was 37.8 µM (inactive) in test [1], > 100 µM (inactive) in test [2] and 24.8 µM (inactive) in test [3].

For `O=P(O)(Cc1ccccc1)c1ccccc1-c1ccccc1`, the GI50 in test [2] and in test [3] was > 100 µM (inactive) throughout.

Turning to `O=C1c2ccccc2C(=O)c2c(Nc3cc4c5c(ccc6c7ccc8c9c(cc(Nc%10cccc%11c%10C(=O)c%10ccccc%10C%11=O)c(c3c56)c97)-c3ccccc3C8=O)C(=O)c3ccccc3-4)cccc21`, the GI50 was 41.1 µM (inactive) in test [1], > 100 µM (inactive) in test [2] and > 100 µM (inactive) in test [3].

For the molecule `CO[C@H]1C=CO[C@@]2(C)Oc3c(C)c(O)c4c(O)c(c(CN5CCN(C)CC5)c(O)c4c3C2=O)NC(=O)/C(C)=C\C=C[C@H](C)[C@H](O)C(C)[C@@H](O)C(C)[C@H](OC(C)=O)[C@@H]1C` (some centres undefined), the GI50 in test [1] is 27.5 µM (inactive); in test [2] it was 34.8 µM (inactive); in test [3], 26.7 µM (inactive).

As for `NNC(=O)c1c(SCc2ccccc2)nc2c3ccccc3ccn12`, the GI50 was 17.1 µM (inactive) in test [1], 23.9 µM (inactive) in test [2] and 18.1 µM (inactive) in test [3].

With `NC(CCCCNC(=O)C(Cc1ccccc1)NC(=O)OCc1ccccc1)C(=O)NC(CCCCNC(=O)C(Cc1ccccc1)NC(=O)OCc1ccccc1)C(=O)NC(CCCCNC(=O)C(Cc1ccccc1)NC(=O)OCc1ccccc1)C(=O)NC(CCCCNC(=O)C(Cc1ccccc1)NC(=O)OCc1ccccc1)C(=O)NC(CCCCNC(=O)C(Cc1ccccc1)NC(=O)OCc1ccccc1)C(=O)NC(CCCCNC(=O)C(Cc1ccccc1)NC(=O)OCc1ccccc1)C(=O)O` (centres undefined), the GI50 in test [1], in test [2] and in test [3] was > 100 µM (inactive) throughout.

Turning to `CCOC(=O)CC[C@H](NC(=O)N[C@H](C)c1ccccc1)C(=O)OCC`, the GI50 in test [1] is 27.9 µM (inactive); in test [2] it was 83.2 µM (inactive).
